# Patent US7612064B2, “Sulfopyrroles” (Takeda Pharmaceutical Company Limited, priority 2003, dated 2009)
# What was measured:
# MRC5 = assay: MTS proliferation assay; format: cell-based; details: MRC5, 72 h
# In short: (§1)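 Compounds at final 10/3/1/0.3 μM (added in complete medium, ≤5% DMSO); 72 h, culture conditions; + MTS, 3 h; A492.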
# HeLa [1] = assay: PI staining for cell cycle distribution; format: cell-based, human; parameters: key: 0: no effect; 1: weak effect; 2: strong effect; details: HeLa 10μM, 48 h
# Protocol: (§2) 1-2*10^5 cells are seeded into 24 well tissue culture plates and incubated for 24 h prior to compound addition. […] Adherent cells are harvested by trypsinization. The cell suspensions are fixed by adding 2 parts ice cold ethanol 100% while vortexing. Then the samples are stored for>2 h at −20° C. Subsequently the cells are washed with PBS once and resuspended in 250 μl PBS containing 50 μg/ml PI (Calbiochem # 537059), then the samples are incubated at 37° C. for 30 min and subsequently analyzed on a FACSCalibur™ monitoring linear PI fluorescence activity on FL2. The readout allows the detection of a possible direct or indirect influence of the tested compounds on the cell cycle. The following events can occur: a) Generation of a subG1 peak indicative for DNA fragmentation, b) increase of the cell population arrested in G2M phase. Both events are scored by 1 for weak and 2 for strong occurrence. 0 indicates no occurrence at all.
# Jurkat [2] = assay: PI staining for cell cycle distribution; format: cell-based, human; parameters: key: 0: no effect; 1: weak effect; 2: strong effect; details: Jurkat 3μM, 48 h
# Protocol: as §2
# HeLa [3] = assay: MTS proliferation assay; format: cell-based, human; details: 72 h
# In short: as §1
# Jurkat [4] = assay: MTS proliferation assay; format: cell-based, human; details: 72 h
# In short: as §1
# [5] = Hoechst 33342 nuclear staining; format: cell-based; details: for Hoechst 33342 nuclear staining score, H460: H460 cells; for Hoechst 33342 nuclear staining score, HeLa: HeLa cells; for Hoechst 33342 nuclear staining score, Jily: Jily cells; for Hoechst 33342 nuclear staining score, Jurkat: Jurkat cells; for Hoechst 33342 nuclear staining score, MRC5: MRC5 cells;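 on all read-outs here: apoptotic nuclei scored 0 none 1 weak under 50% of cells 2 strong over 50% of cells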
# In short: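 Cells were plated in 96 well tissue culture plates in 80 μl complete medium, with 3-5*10^3 cells per well for adherent lines and 8-10*10^3 for suspension lines. Adherent cells spread for 24 h before treatment, while suspension cells were treated right after seeding. Compounds were added in 20 μl complete medium containing max 5% DMSO.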
# Jily = assay: MTS proliferation assay; format: cell-based; details: 72 h
# In short: as §1
# [6] = conc 0.1 (final concentrations in μM), 24 h or 48 h incubation
# [7] = conc 0.3 (final concentrations in μM), 24 h or 48 h incubation
# [8] = conc 1 (final concentrations in μM), 24 h or 48 h incubation
# [9] = conc 3 (final concentrations in μM), 24 h or 48 h incubation
compound,measurement,setting,value
"p-(1-[p-Toluenesulfonyl]-2-[3,4,5-trimethoxyphenyl]-4-pyrrolyl)-benzamide [Example 6]",IC50,MRC5,< 1000 nM
same,"PI staining for cell cycle distribution, G2M",HeLa [1],2
same,"PI staining for cell cycle distribution, subG1",HeLa [1],0
same,"PI staining for cell cycle distribution, G2M",Jurkat [2],1
same,"PI staining for cell cycle distribution, subG1",Jurkat [2],0
same,IC50,HeLa [3],< 1000 nM
same,IC50,Jurkat [4],< 200 nM
Cc1ccc(S(=O)(=O)n2cc(-c3cncc(C(N)=O)c3)cc2-c2cccs2)cc1 [Example 53],IC50,MRC5,> 1000 nM
same,"Hoechst 33342 nuclear staining score, H460",[5]; [6],0
same,"Hoechst 33342 nuclear staining score, H460",[5]; [7],0
same,"Hoechst 33342 nuclear staining score, H460",[5]; [8],0
same,"Hoechst 33342 nuclear staining score, H460",[5]; [9],0
same,"Hoechst 33342 nuclear staining score, HeLa",[5]; [6],0
same,"Hoechst 33342 nuclear staining score, HeLa",[5]; [7],0
same,"Hoechst 33342 nuclear staining score, HeLa",[5]; [8],0
same,"Hoechst 33342 nuclear staining score, HeLa",[5]; [9],0
same,"Hoechst 33342 nuclear staining score, Jily",[5]; [6],0
same,"Hoechst 33342 nuclear staining score, Jily",[5]; [7],0
same,"Hoechst 33342 nuclear staining score, Jily",[5]; [8],0
same,"Hoechst 33342 nuclear staining score, Jily",[5]; [9],0
same,"Hoechst 33342 nuclear staining score, Jurkat",[5]; [6],0
same,"Hoechst 33342 nuclear staining score, Jurkat",[5]; [7],0
same,"Hoechst 33342 nuclear staining score, Jurkat",[5]; [8],0
same,"Hoechst 33342 nuclear staining score, Jurkat",[5]; [9],0
same,"Hoechst 33342 nuclear staining score, MRC5",[5]; [6],0
same,"Hoechst 33342 nuclear staining score, MRC5",[5]; [7],0
same,"Hoechst 33342 nuclear staining score, MRC5",[5]; [8],0
same,"Hoechst 33342 nuclear staining score, MRC5",[5]; [9],0
same,"Hoechst 33342 nuclear staining score, PBLs",[5]; [6],0
same,"Hoechst 33342 nuclear staining score, PBLs",[5]; [7],0
same,"Hoechst 33342 nuclear staining score, PBLs",[5]; [8],0
same,"Hoechst 33342 nuclear staining score, PBLs",[5]; [9],0
same,"PI staining for cell cycle distribution, G2M",HeLa [1],2
same,"PI staining for cell cycle distribution, subG1",HeLa [1],0
same,"PI staining for cell cycle distribution, G2M",Jurkat [2],1
same,"PI staining for cell cycle distribution, subG1",Jurkat [2],0
same,IC50,HeLa [3],> 1000 nM
same,IC50,Jurkat [4],< 1000 nM
COc1cc(-c2cc(CNc3ccc(-n4ccnc4)cc3)cn2S(=O)(=O)c2ccc(C)cc2)cc(OC)c1OC [Example 55],IC50,Jily,> 1000 nM
same,IC50,MRC5,< 1000 nM
same,"Hoechst 33342 nuclear staining score, H460",[5]; [6],0
same,"Hoechst 33342 nuclear staining score, H460",[5]; [7],0
same,"Hoechst 33342 nuclear staining score, H460",[5]; [8],0
same,"Hoechst 33342 nuclear staining score, H460",[5]; [9],2 (strong activity comprising more than 50% of the cells)
same,"Hoechst 33342 nuclear staining score, HeLa",[5]; [6],0
same,"Hoechst 33342 nuclear staining score, HeLa",[5]; [7],0
same,"Hoechst 33342 nuclear staining score, HeLa",[5]; [8],1 (weak activity comprising less than 50% of the cells)
same,"Hoechst 33342 nuclear staining score, HeLa",[5]; [9],2 (strong activity comprising more than 50% of the cells)
same,"Hoechst 33342 nuclear staining score, Jily",[5]; [6],0
same,"Hoechst 33342 nuclear staining score, Jily",[5]; [7],0
same,"Hoechst 33342 nuclear staining score, Jily",[5]; [8],2 (strong activity comprising more than 50% of the cells)
same,"Hoechst 33342 nuclear staining score, Jily",[5]; [9],2 (strong activity comprising more than 50% of the cells)
same,"Hoechst 33342 nuclear staining score, Jurkat",[5]; [6],0
same,"Hoechst 33342 nuclear staining score, Jurkat",[5]; [7],0
same,"Hoechst 33342 nuclear staining score, Jurkat",[5]; [8],2 (strong activity comprising more than 50% of the cells)
same,"Hoechst 33342 nuclear staining score, Jurkat",[5]; [9],2 (strong activity comprising more than 50% of the cells)
same,"Hoechst 33342 nuclear staining score, MRC5",[5]; [6],0
same,"Hoechst 33342 nuclear staining score, MRC5",[5]; [7],0
same,"Hoechst 33342 nuclear staining score, MRC5",[5]; [8],0
same,"Hoechst 33342 nuclear staining score, MRC5",[5]; [9],1 (weak activity comprising less than 50% of the cells)
same,"Hoechst 33342 nuclear staining score, PBLs",[5]; [6],0
same,"Hoechst 33342 nuclear staining score, PBLs",[5]; [7],0
same,"Hoechst 33342 nuclear staining score, PBLs",[5]; [8],0
same,"Hoechst 33342 nuclear staining score, PBLs",[5]; [9],0
same,"PI staining for cell cycle distribution, G2M",HeLa [1],2
same,"PI staining for cell cycle distribution, subG1",HeLa [1],0
same,"PI staining for cell cycle distribution, G2M",Jurkat [2],1
same,"PI staining for cell cycle distribution, subG1",Jurkat [2],0
same,IC50,HeLa [3],> 1000 nM
same,IC50,Jurkat [4],< 1000 nM
COc1ccc(S(=O)(=O)n2cc(CNc3ccc(N4CCOCC4)cc3)cc2-c2ccc(OC)cc2OC)cc1 [Example 96],IC50,Jily,> 1000 nM
same,IC50,MRC5,> 1000 nM
same,"Hoechst 33342 nuclear staining score, H460",[5]; conc 0.1,0
same,"Hoechst 33342 nuclear staining score, H460",[5]; conc 0.3,0
same,"Hoechst 33342 nuclear staining score, H460",[5]; conc 1,0
same,"Hoechst 33342 nuclear staining score, H460",[5]; conc 3,0
same,"Hoechst 33342 nuclear staining score, HeLa",[5]; conc 0.1,0
same,"Hoechst 33342 nuclear staining score, HeLa",[5]; conc 0.3,0
same,"Hoechst 33342 nuclear staining score, HeLa",[5]; conc 1,0
same,"Hoechst 33342 nuclear staining score, HeLa",[5]; conc 3,0
same,"Hoechst 33342 nuclear staining score, Jily",[5]; conc 0.1,0
same,"Hoechst 33342 nuclear staining score, Jily",[5]; conc 0.3,0
same,"Hoechst 33342 nuclear staining score, Jily",[5]; conc 1,0
same,"Hoechst 33342 nuclear staining score, Jily",[5]; conc 3,1 (weak activity comprising less than 50% of the cells)
same,"Hoechst 33342 nuclear staining score, Jurkat",[5]; conc 0.1,0
same,"Hoechst 33342 nuclear staining score, Jurkat",[5]; conc 0.3,0
same,"Hoechst 33342 nuclear staining score, Jurkat",[5]; conc 1,0
same,"Hoechst 33342 nuclear staining score, Jurkat",[5]; conc 3,0
same,"Hoechst 33342 nuclear staining score, MRC5",[5]; conc 0.1,0
same,"Hoechst 33342 nuclear staining score, MRC5",[5]; conc 0.3,0
same,"Hoechst 33342 nuclear staining score, MRC5",[5]; conc 1,0
same,"Hoechst 33342 nuclear staining score, MRC5",[5]; conc 3,0
same,"Hoechst 33342 nuclear staining score, PBLs",[5]; conc 0.1,0
same,"Hoechst 33342 nuclear staining score, PBLs",[5]; conc 0.3,0
same,"Hoechst 33342 nuclear staining score, PBLs",[5]; conc 1,0
same,"Hoechst 33342 nuclear staining score, PBLs",[5]; conc 3,0
same,IC50,HeLa [3],> 1000 nM
same,IC50,Jurkat [4],> 1000 nM
COCCCNC(=O)c1cncc(-c2cc(-c3cc(OC)c(OC)c(OC)c3)n(S(=O)(=O)c3ccc(C)cc3)c2)c1.Cl [Example 65],IC50,Jily,< 1000 nM
same,IC50,MRC5,< 1000 nM
same,"Hoechst 33342 nuclear staining score, H460",[5]; conc 0.1,0
same,"Hoechst 33342 nuclear staining score, H460",[5]; conc 0.3,0
same,"Hoechst 33342 nuclear staining score, H460",[5]; conc 1,2 (strong activity comprising more than 50% of the cells)
same,"Hoechst 33342 nuclear staining score, H460",[5]; conc 3,2 (strong activity comprising more than 50% of the cells)
same,"Hoechst 33342 nuclear staining score, HeLa",[5]; conc 0.1,0
same,"Hoechst 33342 nuclear staining score, HeLa",[5]; conc 0.3,0
same,"Hoechst 33342 nuclear staining score, HeLa",[5]; conc 1,0
same,"Hoechst 33342 nuclear staining score, HeLa",[5]; conc 3,2 (strong activity comprising more than 50% of the cells)
same,"Hoechst 33342 nuclear staining score, Jily",[5]; conc 0.1,0
same,"Hoechst 33342 nuclear staining score, Jily",[5]; conc 0.3,0
same,"Hoechst 33342 nuclear staining score, Jily",[5]; conc 1,2 (strong activity comprising more than 50% of the cells)
same,"Hoechst 33342 nuclear staining score, Jily",[5]; conc 3,2 (strong activity comprising more than 50% of the cells)
same,"Hoechst 33342 nuclear staining score, Jurkat",[5]; conc 0.1,0
same,"Hoechst 33342 nuclear staining score, Jurkat",[5]; conc 0.3,0
same,"Hoechst 33342 nuclear staining score, Jurkat",[5]; conc 1,2 (strong activity comprising more than 50% of the cells)
same,"Hoechst 33342 nuclear staining score, Jurkat",[5]; conc 3,2 (strong activity comprising more than 50% of the cells)
same,"Hoechst 33342 nuclear staining score, MRC5",[5]; conc 0.1,0
same,"Hoechst 33342 nuclear staining score, MRC5",[5]; conc 0.3,0
same,"Hoechst 33342 nuclear staining score, MRC5",[5]; conc 1,2 (strong activity comprising more than 50% of the cells)
same,"Hoechst 33342 nuclear staining score, MRC5",[5]; conc 3,2 (strong activity comprising more than 50% of the cells)
same,"Hoechst 33342 nuclear staining score, PBLs",[5]; conc 0.1,0
same,"Hoechst 33342 nuclear staining score, PBLs",[5]; conc 0.3,0
same,"Hoechst 33342 nuclear staining score, PBLs",[5]; conc 1,0
same,"Hoechst 33342 nuclear staining score, PBLs",[5]; conc 3,0
same,IC50,HeLa [3],< 1000 nM
same,IC50,Jurkat [4],< 1000 nM
